PubChem BioAssay AID2060603 (Molecular Pharmacology Branch, DTP, NCI, 2025)
pIC50: −log10 of the molar value. Values joined by “and” are separate entries in the source; they are usually repeats but may differ in a detail not shown here. Identical values can stand only once.

Tested on: 422866-222-R5-J1-PDC spheroid viability
Test: Anticancer human tumor 422866-222-R5-J1-PDC patient-derived pancreatic adenocarcinoma cell line growth inhibition [CLK]
Conditions: spheroids with HUVEC and MSC; for viability, T/C: stronger effect = lower value
Source text: A high-throughput screen of multi-cell type tumor spheroids was designed to identify active combinations of […] and targeted small molecules. Complex spheroids include a stromal component modeled by human endothelial cells (HUVEC) and fibroblasts modeled by human mesenchymal stem cells (MSCs). The concentration ranges selected for each drug and investigational agent were based upon clinically achievable concentrations if the clinical Cmax of the agent was known.
Compounds. The drugs and investigational agents: cirtuvivint (SM08502; NSC835563), CC-671 (NSC850746), vemurafenib (NSC761431), tapotoclax (NSC804041), sotorasib (NSC818433), adagrasib (NSC831453), MRTX-1133 (NSC836407), BAY2416964 (NSC825713), copanlisib (NSC816437), inavolisib (NSC800729), abemaciclib (NSC768073), osimertinib (NSC779217), entinostat (NSC756642), eltanexor (KPT-8602, NSC794443), venetoclax (NSC766270), ceralasertib (NSC777638), bortezomib (NSC756655), olaparib (NSC753686), talazoparib (NSC767125), alisertib (NSC759677), peposertib (NSC802822), gemcitabine (NSC613327), 5-fluorouracil (NSC19893), SN-38 (NSC673596), oxaliplatin (NSC266046), paclitaxel (NSC125973), and doxorubicin (NSC123127), were obtained from the National Cancer Institute (NCI) Developmental Therapeutics Program Chemical Repository. The FDA-approved anticancer drug set is available from the Developmental Therapeutics Program at https://dtp.cancer.gov/organization/dscb/obtaining/available plates.htm. […] The stock solutions were prepared in dimethyl sulfoxide (DMSO, Sigma-Aldrich, St. Louis, MO, cat. D2650), except for the platinum complexes which were prepared in saline (Quality Biological, Gaithersburg, MD, cat. 114-055-101), at 800-fold the tested concentration and stored at -70 degrees C prior to their use. All drugs and investigational agents were tested over a range starting from a high concentration at or near the clinical Cmax and decreasing in half-log increments. If the clinical Cmax for an agent had not been determined, the highest concentration tested was 10 microM.
Cell Culture. All cells were maintained in an incubator at 37 degrees C and 5% CO2 with 95% humidity. The PDC lines were cultured according to standard operating procedures established by the NCI PDMR. Briefly, all PDCs were thawed and cultured in Matrigel-coated flasks prepared with a working solution of 1X Ham's F-12 nutrient mix, without supplementation (Invitrogen, Waltham, MA, cat. 11765054), 100 U/mL penicillin-streptomycin (Invitrogen, cat. 15140122), and 2.5% Matrigel (Corning Inc., Corning, NY, cat. 354248) for the first three passages. The 947758-054-R-J2-PDC line was cultured in 6B/Colon 1A media, which includes advanced DMEM/F-12 (Thermo Fisher Scientific, cat. 12634028), 10 mM HEPES (Thermo Fisher Scientific, cat. 15630080), 1X GlutaMAX supplement (Thermo Fisher Scientific, cat. 35050061), 0.1 mg/mL primocin (InvivoGen, cat. ant-pm-2), 10% defined fetal bovine serum, heat inactivated (HyClone Laboratories Inc., cat. SH30070.03HI), 1.25 mM N-Acetyl-L-cysteine (Sigma-Aldrich, cat. A9165), 10 mM nicotinamide (Sigma-Aldrich, cat. N0636), 1X B-27 supplement (Thermo Fisher Scientific, cat. 17504044), 1X N-2 supplement (Thermo Fisher Scientific, cat. 17502048), and 10 microM Y-27632 dihydrochloride (Tocris Bioscience, cat. 1254). The 876862-298-R-J1-PDC was cultured in 6E media, which includes all 6B/Colon 1A media components plus 50% L-WRN conditioned media (ATCC, cat. CRL-3276), 50 ng/mL recombinant human EGF recombinant protein (hEGF; Thermo Fisher Scientific, cat. PHG0311), 10 ng/mL recombinant human fibroblast growth factor 10 (hGFG-10; PeproTech, cat. 100-26), 1 ng/mL recombinant human fibroblast growth factor 2 (hFGF-2; PeproTech, cat. 100-18B), and 1 µM prostaglandin E2 (PGE2; Tocris, cat. 2296). The 227483-062-R1-J1-PDC line was cultured in Panc media, containing all 6E components except hFGF-2, with the addition of 500 nM SB-431542 (Selleckchem, cat. S1067) and 10 nM gastrin (Tocris, cat. 3006). […]
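Note: spheroids exposed to agents for seven days before readout.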

SMILES: C=CC(=O)Nc1cc(Nc2nccc(-c3cn(C)c4ccccc34)n2)c(OC)cc1N(C)CCN(C)C + CNC(=O)c1ccc(Nc2nc(OC3CCCC3)c3c(-c4ccc5nc(C)oc5c4)c[nH]c3n2)c(OC)c1
- pIC50 (curve of first compound, second compound 0.0316 µM): < 6.52
- pIC50 (curve of first compound, second compound 0.1 µM): < 6.52
- pIC50 (curve of first compound, second compound 0.316 µM): < 6.52
- pIC50 (curve of first compound, second compound 1 µM): < 6.52
- pIC50 (curve of first compound, second compound 3.16 µM): < 6.52
- pIC50 (curve of first compound, second compound 10 µM): < 6.52
- viability, T/C (second compound 0.0316 µM, first compound 0.000949 µM): 98.9%
- viability, T/C (second compound 0.0316 µM, first compound 0.003 µM): 98.2%
- viability, T/C (second compound 0.0316 µM, first compound 0.00949 µM): 85.4%
- viability, T/C (second compound 0.0316 µM, first compound 0.03 µM): 79.2%
- viability, T/C (second compound 0.0316 µM, first compound 0.0949 µM): 69.7%
- viability, T/C (second compound 0.0316 µM, first compound 0.3 µM): 77.1%
- viability, T/C (second compound 0.1 µM, first compound 0.000949 µM): 103%
- viability, T/C (second compound 0.1 µM, first compound 0.003 µM): 82.9%
- viability, T/C (second compound 0.1 µM, first compound 0.00949 µM): 74.5%
- viability, T/C (second compound 0.1 µM, first compound 0.03 µM): 71.8%
- viability, T/C (second compound 0.1 µM, first compound 0.0949 µM): 70.7%
- viability, T/C (second compound 0.1 µM, first compound 0.3 µM): 57.1%
- viability, T/C (second compound 0.316 µM, first compound 0.000949 µM): 66.3%
- viability, T/C (second compound 0.316 µM, first compound 0.003 µM): 73.5%
- viability, T/C (second compound 0.316 µM, first compound 0.00949 µM): 68%
- viability, T/C (second compound 0.316 µM, first compound 0.03 µM): 58.7%
- viability, T/C (second compound 0.316 µM, first compound 0.0949 µM): 59.2%
- viability, T/C (second compound 0.316 µM, first compound 0.3 µM): 60.7%
- viability, T/C (second compound 1 µM, first compound 0.000949 µM): 60.8%
- viability, T/C (second compound 1 µM, first compound 0.003 µM): 65.8%
- viability, T/C (second compound 1 µM, first compound 0.00949 µM): 60.9%
- viability, T/C (second compound 1 µM, first compound 0.03 µM): 65.5%
- viability, T/C (second compound 1 µM, first compound 0.0949 µM): 59.3%
- viability, T/C (second compound 1 µM, first compound 0.3 µM): 54.8%
- viability, T/C (second compound 3.16 µM, first compound 0.000949 µM): 52.8%
- viability, T/C (second compound 3.16 µM, first compound 0.003 µM): 61.6%
- viability, T/C (second compound 3.16 µM, first compound 0.00949 µM): 60.4%
- viability, T/C (second compound 3.16 µM, first compound 0.03 µM): 56.4%
- viability, T/C (second compound 3.16 µM, first compound 0.0949 µM): 62.7%
- viability, T/C (second compound 3.16 µM, first compound 0.3 µM): 54.9%
- viability, T/C (second compound 10 µM, first compound 0.000949 µM): 69.6%
- viability, T/C (second compound 10 µM, first compound 0.003 µM): 68.8%
- viability, T/C (second compound 10 µM, first compound 0.00949 µM): 63.5%
- viability, T/C (second compound 10 µM, first compound 0.03 µM): 62.4%
- viability, T/C (second compound 10 µM, first compound 0.0949 µM): 55.6%
- viability, T/C (second compound 10 µM, first compound 0.3 µM): 51.7%

SMILES: C#Cc1c(F)ccc2cc(O)cc(-c3ncc4c(N5CC6CCC(C5)N6)nc(OCC56CCCN5CC(F)C6)nc4c3F)c12 (stereo not drawn)
- viability, T/C (compound 0.0316 µM): 76.7% and 87.4%
- viability, T/C (compound 0.1 µM): 73.1% and 85.8%
- viability, T/C (compound 0.316 µM): 55.9% and 64.3%
- viability, T/C (compound 1 µM): 51.7% and 67%
- viability, T/C (compound 3.16 µM): 36.1% and 38.3%
- viability, T/C (compound 10 µM): 26.8% and 29.4%
- pIC50 (curve of compound): 6.06 and 5.72

SMILES: C=C(F)C(=O)N1CCN(c2nc(OCC3CCCN3C)nc3c2CCN(c2cccc4cccc(Cl)c24)C3)CC1CC#N (stereo not drawn)
- viability, T/C (compound 0.0316 µM): 31.6% and 42%
- viability, T/C (compound 0.1 µM): 23.6% and 24.5%
- viability, T/C (compound 0.316 µM): 19.6% and 21%
- viability, T/C (compound 1 µM): 26.1% and 22.8%
- viability, T/C (compound 3.16 µM): 11.2% and 15.2%
- viability, T/C (compound 10 µM): 0.14%
- pIC50 (curve of compound): > 7.50

SMILES: CCCS(=O)(=O)Nc1ccc(F)c(C(=O)c2c[nH]c3ncc(-c4ccc(Cl)cc4)cc23)c1F
- viability, T/C (compound 0.0316 µM): 103% and 89.2%
- viability, T/C (compound 0.1 µM): 100% and 86%
- viability, T/C (compound 0.316 µM): 128% and 114%
- viability, T/C (compound 1 µM): 147% and 152%
- viability, T/C (compound 3.16 µM): 169% and 165%
- viability, T/C (compound 10 µM): 137% and 149%
- pIC50 (curve of compound): < 5.00
